# In PubChem BioAssay AID1963446 (Molecular Pharmacology Branch, DTP, NCI, 2024):
# Values joined by “and” are separate entries in the source; they are usually repeats but may differ in a detail not shown here. Equal entries are not always repeated.
# System: 993429-296-R-J1-PDC complex spheroid growth, percent test/control
# Experiment: Anticancer human tumor 993429-296-R-J1-PDC patient-derived uterine sarcoma cell line growth inhibition [Asc]
# Details: for viability, T/C: stronger effect = lower value
# Outline: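 Complex solid-tumor spheroids incorporating human endothelial and mesenchymal stem cells received single agents or combinations over half-log dilution ranges anchored to clinical Cmax.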
# [1] = curve of first compound, second compound 0.01 µM
# [2] = curve of first compound, second compound 0.0316 µM
# [3] = curve of first compound, second compound 0.1 µM
# [4] = curve of first compound, second compound 0.316 µM
# [5] = curve of first compound, second compound 1 µM
# 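Further: spheroids exposed to compounds for seven days.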
structure (smiles),measurement,setting,value
NC1CCC(NC2CC2c2ccccc2)CC1 (stereo unspecified) + CCN1C(C(=O)NC23CCC(C(=O)O)(CC2)CC3)C(c2cccc(Cl)c2F)C2(C(=O)Nc3cc(Cl)ccc32)C12CCCCC2,IC50,"curve of first compound, second compound 0.03 µM",> 100 nM
same,IC50,"curve of first compound, second compound 0.0949 µM",> 100 nM
same,IC50,"curve of first compound, second compound 0.3 µM",> 100 nM
same,IC50,"curve of first compound, second compound 0.949 µM",> 100 nM
same,IC50,"curve of first compound, second compound 3 µM",> 100 nM
same,"viability, T/C","second compound 0.03 µM, first compound 0.000316 µM",76.4%
same,"viability, T/C","second compound 0.03 µM, first compound 0.001 µM",75.4%
same,"viability, T/C","second compound 0.03 µM, first compound 0.00316 µM",80.2%
same,"viability, T/C","second compound 0.03 µM, first compound 0.01 µM",77.8%
same,"viability, T/C","second compound 0.03 µM, first compound 0.0316 µM",81.4%
same,"viability, T/C","second compound 0.03 µM, first compound 0.1 µM",91.8%
same,"viability, T/C","second compound 0.0949 µM, first compound 0.000316 µM",91.1%
same,"viability, T/C","second compound 0.0949 µM, first compound 0.001 µM",77.5%
same,"viability, T/C","second compound 0.0949 µM, first compound 0.00316 µM",74.7%
same,"viability, T/C","second compound 0.0949 µM, first compound 0.01 µM",66.8%
same,"viability, T/C","second compound 0.0949 µM, first compound 0.0316 µM",93%
same,"viability, T/C","second compound 0.0949 µM, first compound 0.1 µM",81.5%
same,"viability, T/C","second compound 0.3 µM, first compound 0.000316 µM",98.2%
same,"viability, T/C","second compound 0.3 µM, first compound 0.001 µM",74.7%
same,"viability, T/C","second compound 0.3 µM, first compound 0.00316 µM",69%
same,"viability, T/C","second compound 0.3 µM, first compound 0.01 µM",80.2%
same,"viability, T/C","second compound 0.3 µM, first compound 0.0316 µM",69.3%
same,"viability, T/C","second compound 0.3 µM, first compound 0.1 µM",83.8%
same,"viability, T/C","second compound 0.949 µM, first compound 0.000316 µM",72%
same,"viability, T/C","second compound 0.949 µM, first compound 0.001 µM",76.9%
same,"viability, T/C","second compound 0.949 µM, first compound 0.00316 µM",83.1%
same,"viability, T/C","second compound 0.949 µM, first compound 0.01 µM",83.2%
same,"viability, T/C","second compound 0.949 µM, first compound 0.0316 µM",76.6%
same,"viability, T/C","second compound 0.949 µM, first compound 0.1 µM",88.9%
same,"viability, T/C","second compound 3 µM, first compound 0.000316 µM",75.2%
same,"viability, T/C","second compound 3 µM, first compound 0.001 µM",85.6%
same,"viability, T/C","second compound 3 µM, first compound 0.00316 µM",79.7%
same,"viability, T/C","second compound 3 µM, first compound 0.01 µM",74.1%
same,"viability, T/C","second compound 3 µM, first compound 0.0316 µM",70.3%
same,"viability, T/C","second compound 3 µM, first compound 0.1 µM",71%
O=C(c1cc(Cc2n[nH]c(=O)c3ccccc23)ccc1F)N1CCN(C(=O)C2CC2)CC1 + CNC(C)C(=O)NC1CN(S(=O)(=O)c2cccc(S(=O)(=O)N3CCC4CCC(C(=O)NC(c5ccccc5)c5ccccc5)N4C(=O)C(NC(=O)C(C)NC)C3)c2)CCC2CCC(C(=O)NC(c3ccccc3)c3ccccc3)N2C1=O,IC50,[1],2080 nM
same,IC50,[2],1740 nM
same,IC50,[3],1110 nM
same,IC50,[4],406 nM
same,IC50,[5],903 nM
same,"viability, T/C","second compound 0.01 µM, first compound 0.0316 µM",63.2%
same,"viability, T/C","second compound 0.01 µM, first compound 0.1 µM",73.3%
same,"viability, T/C","second compound 0.01 µM, first compound 0.316 µM",64.6%
same,"viability, T/C","second compound 0.01 µM, first compound 1 µM",64.5%
same,"viability, T/C","second compound 0.01 µM, first compound 3.16 µM",41.8%
same,"viability, T/C","second compound 0.01 µM, first compound 10 µM",17.7%
same,"viability, T/C","second compound 0.0316 µM, first compound 0.0316 µM",61.5%
same,"viability, T/C","second compound 0.0316 µM, first compound 0.1 µM",56.2%
same,"viability, T/C","second compound 0.0316 µM, first compound 0.316 µM",59.5%
same,"viability, T/C","second compound 0.0316 µM, first compound 1 µM",59.6%
same,"viability, T/C","second compound 0.0316 µM, first compound 3.16 µM",40%
same,"viability, T/C","second compound 0.0316 µM, first compound 10 µM",12.4%
same,"viability, T/C","second compound 0.1 µM, first compound 0.0316 µM",53.4%
same,"viability, T/C","second compound 0.1 µM, first compound 0.1 µM",63.5%
same,"viability, T/C","second compound 0.1 µM, first compound 0.316 µM",54.8%
same,"viability, T/C","second compound 0.1 µM, first compound 1 µM",51.4%
same,"viability, T/C","second compound 0.1 µM, first compound 3.16 µM",36.3%
same,"viability, T/C","second compound 0.1 µM, first compound 10 µM",11.6%
same,"viability, T/C","second compound 0.316 µM, first compound 0.0316 µM",60.2%
same,"viability, T/C","second compound 0.316 µM, first compound 0.1 µM",55.9%
same,"viability, T/C","second compound 0.316 µM, first compound 0.316 µM",43.6%
same,"viability, T/C","second compound 0.316 µM, first compound 1 µM",45.5%
same,"viability, T/C","second compound 0.316 µM, first compound 3.16 µM",39%
same,"viability, T/C","second compound 0.316 µM, first compound 10 µM",14.1%
same,"viability, T/C","second compound 1 µM, first compound 0.0316 µM",53.2%
same,"viability, T/C","second compound 1 µM, first compound 0.1 µM",48%
same,"viability, T/C","second compound 1 µM, first compound 0.316 µM",59.5%
same,"viability, T/C","second compound 1 µM, first compound 1 µM",48.7%
same,"viability, T/C","second compound 1 µM, first compound 3.16 µM",28.1%
same,"viability, T/C","second compound 1 µM, first compound 10 µM",10.7%
CCN1C(C(=O)NC23CCC(C(=O)O)(CC2)CC3)C(c2cccc(Cl)c2F)C2(C(=O)Nc3cc(Cl)ccc32)C12CCCCC2 (stereo unspecified) + CNC(C)C(=O)NC1CN(S(=O)(=O)c2cccc(S(=O)(=O)N3CCC4CCC(C(=O)NC(c5ccccc5)c5ccccc5)N4C(=O)C(NC(=O)C(C)NC)C3)c2)CCC2CCC(C(=O)NC(c3ccccc3)c3ccccc3)N2C1=O,IC50,[1],> 3000 nM
same,IC50,[2],> 3000 nM
same,IC50,[3],> 3000 nM
same,IC50,[4],< 9.49 nM
same,IC50,[5],> 3000 nM
same,"viability, T/C","second compound 0.01 µM, first compound 0.00949 µM",66.7%
same,"viability, T/C","second compound 0.01 µM, first compound 0.03 µM",61.1%
same,"viability, T/C","second compound 0.01 µM, first compound 0.0949 µM",64%
same,"viability, T/C","second compound 0.01 µM, first compound 0.3 µM",66.5%
same,"viability, T/C","second compound 0.01 µM, first compound 0.949 µM",74.5%
same,"viability, T/C","second compound 0.01 µM, first compound 3 µM",60%
same,"viability, T/C","second compound 0.0316 µM, first compound 0.00949 µM",66.2%
same,"viability, T/C","second compound 0.0316 µM, first compound 0.03 µM",61.2%
same,"viability, T/C","second compound 0.0316 µM, first compound 0.0949 µM",55%
same,"viability, T/C","second compound 0.0316 µM, first compound 0.3 µM",54.5%
same,"viability, T/C","second compound 0.0316 µM, first compound 0.949 µM",68.5%
same,"viability, T/C","second compound 0.0316 µM, first compound 3 µM",61.1%
same,"viability, T/C","second compound 0.1 µM, first compound 0.00949 µM",58.9%
same,"viability, T/C","second compound 0.1 µM, first compound 0.03 µM",50%
same,"viability, T/C","second compound 0.1 µM, first compound 0.0949 µM",56%
same,"viability, T/C","second compound 0.1 µM, first compound 0.3 µM",48.4%
same,"viability, T/C","second compound 0.1 µM, first compound 0.949 µM",60.1%
same,"viability, T/C","second compound 0.1 µM, first compound 3 µM",64%
same,"viability, T/C","second compound 0.316 µM, first compound 0.00949 µM",48.9%
same,"viability, T/C","second compound 0.316 µM, first compound 0.03 µM",55.7%
same,"viability, T/C","second compound 0.316 µM, first compound 0.0949 µM",53%
same,"viability, T/C","second compound 0.316 µM, first compound 0.3 µM",60.8%
same,"viability, T/C","second compound 0.316 µM, first compound 0.949 µM",68.7%
same,"viability, T/C","second compound 0.316 µM, first compound 3 µM",58.1%
same,"viability, T/C","second compound 1 µM, first compound 0.00949 µM",55.3%
same,"viability, T/C","second compound 1 µM, first compound 0.03 µM",59.9%
same,"viability, T/C","second compound 1 µM, first compound 0.0949 µM",45.4%
same,"viability, T/C","second compound 1 µM, first compound 0.3 µM",40.9%
same,"viability, T/C","second compound 1 µM, first compound 0.949 µM",51.8%
same,"viability, T/C","second compound 1 µM, first compound 3 µM",63.1%
C#Cc1c(F)ccc2cc(O)cc(-c3ncc4c(N5CC6CCC(C5)N6)nc(OCC56CCCN5CC(F)C6)nc4c3F)c12 (stereo unspecified),"viability, T/C",compound 0.0316 µM,102% and 88% and 97.9%
same,"viability, T/C",compound 0.1 µM,108% and 101% and 89.1%
same,"viability, T/C",compound 0.316 µM,86% and 86.7% and 88.8%
same,"viability, T/C",compound 1 µM,93.3% and 82.2% and 100%
same,"viability, T/C",compound 3.16 µM,91.9% and 81.4% and 106%
same,IC50,curve of compound,> 10000 nM and 5020 nM and 5680 nM
